Results on 30 compounds are retold here after PubChem BioAssay (NCI).

The structures appear in SMILES notation.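 These data come from cells grown in 96-well plates and exposed to compound for 48 hours at five concentrations. Here, GI50 denotes the concentration required for 50% inhibition of growth. TGI denotes the concentration required for complete inhibition of growth.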

Holding throughout (assay): inhibition of tumour cell growth, NCI panel, 48 h
Assay [1] has as its system HOP-92 NSCLC.
Assay [2] has as its system 786-0 renal.
Assay [3] has as its system HCC-2998 colon.
Assay [4] deals with EKVX NSCLC.
Assay [5] deals with SF-268 CNS.
The subject of assay [6] is OVCAR-8 ovarian.
Assay [7] relates to IGROV1 ovarian.
The test system of assay [8] is HL-60(TB) leukemia.
Assay [9] has as its system SR leukemia.

As for `Cc1cccc(N=Cc2ccc(N(CCC#N)S(=O)(=O)c3ccccc3)cc2C)c1`, the TGI in assay [1], in assay [2], in assay [3], in assay [4], in assay [5] and in [6] was > 100 µM in each case. Moreover, the TGI in [7] and in [8] was > 100 µM each time.

On to `O=S1(=O)c2cc(S(=O)(=O)n3ccnc3)ccc2NC2=NCCCN21`, for which the TGI was > 100 µM in [1]; 99.6 µM in [2]; 55.3 µM in assay [3]; 75.6 µM in [9]; > 100 µM in assay [4]; > 100 µM in assay [5]. The TGI in assay [6] is 70 µM; in [7] it was > 100 µM; in assay [8] it was 36.4 µM.

For the compound `COc1ccc(-c2oc3c(OC)c(OC)c(OC)c(O)c3c(=O)c2OC)cc1O`, the GI50 in [2] was < 0.01 µM; in [9], < 0.01 µM; in assay [4] it was 0.317 µM; in assay [5] it was < 0.01 µM; in [6], < 0.01 µM; in [7] it was 0.0358 µM. Further, the TGI is 11.3 µM in assay [2]; 8.64 µM in assay [3]; 0.112 µM in assay [9]; > 100 µM in [4]; 2.82 µM in [5]; > 100 µM in assay [6]. For the same compound, the TGI was 52.1 µM in [7] and < 0.01 µM in [8].

For the compound `Cc1ccc(/C=N/NS(=O)(=O)c2ccccc2)cc1C`, the TGI in [1], in assay [2], in assay [3], in assay [9], in assay [4] and in assay [5] was > 100 µM in each case. Moreover, the TGI in assay [6], in assay [7] and in assay [8] was > 100 µM each time.

On to `C[N+](C)(C)C1CC([N+](C)(C)C)C2c3ccccc3C21` (centres undefined), for which the TGI in assay [1], in assay [2], in [3], in [4], in assay [5] and in [6] was > 100 µM each time. Further, the TGI in [7] and in assay [8] was > 100 µM throughout.

With `CN(C)CCN(C)C(=O)c1cccc2cccc(C(=O)O)c12`, the TGI in assay [1], in assay [2], in assay [3], in [9], in assay [4] and in [5] was > 100 µM throughout. Moreover, the TGI in assay [6], in [7] and in [8] was > 100 µM in each case.

Consider `C/C(=C\C(C[C@](C)(O)C(O)CCC#C[Si](C)(C)C)S(=O)(=O)c1ccccc1)CC/C=C/CO[Si](C)(C)C(C)(C)C` (some centres undefined), for which the TGI was 25.5 µM in assay [1]; 31.5 µM in assay [2]; 40.6 µM in [3]; 38.4 µM in [4]; 33.6 µM in assay [6]; 41 µM in assay [7]. The compound also showed a TGI in [8] of 33.2 µM.

With `C=CCOc1ccc(N)c([N+](=O)[O-])c1`, the TGI in assay [2], in assay [3], in assay [9], in [4], in assay [5] and in assay [6] was > 100 µM in each case. Further, the TGI in assay [7] and in assay [8] was > 100 µM in each case.

For `[Co].[O-]c1cccnc1C=Nc1ccccc1.[OH3+]`, the GI50 in assay [1] was 28.7 µM; in [2], > 100 µM; in assay [4], > 100 µM; in assay [5], 99.3 µM; in assay [6], > 100 µM; in [7], > 100 µM. Also, the GI50 in [8] was 21.8 µM. Further, the TGI in [1], in assay [2], in assay [4], in assay [5], in assay [6] and in [7] was > 100 µM in each case. Further, the TGI in [8] is > 100 µM.

On to `Cc1[nH]c2ccccc2c1C1=NO/C(=N\O)C(c2c(C)[nH]c3ccccc23)C1` (centres undefined), for which the TGI was > 78.5 µM in [1]; > 100 µM in [2]; > 100 µM in assay [3]; > 78.7 µM in [9]; > 100 µM in assay [4]; > 100 µM in assay [5]. Besides, the TGI in [6] is > 100 µM; in assay [7], > 100 µM; in assay [8] it was 54 µM.

With `CCC[CH2][Sn]1([CH2]CCC)[O]CC[S]1`, the GI50 in [1] was 0.656 µM; in assay [2] it was 0.516 µM; in assay [3], 1.05 µM; in assay [4], 0.749 µM; in [5], 0.363 µM; in assay [6] it was 1.19 µM. In addition, the figures for the GI50 in assay [7] and in assay [8] were 1.55 µM and 0.268 µM, respectively. The TGI in assay [1] is 2.19 µM; in assay [2] it was 1.7 µM; in assay [3] it was 2.26 µM; in assay [4], 2.1 µM; in assay [5] it was 1.44 µM; in assay [6], 2.68 µM. Moreover, the TGI was found to be 4.64 µM in assay [7] and 1.22 µM in assay [8].

In the case of `O=C(O)CCSC(=O)Nc1cccc2ccccc12`, the TGI in [1], in assay [2], in [3], in assay [9], in assay [4] and in [5] was > 100 µM throughout. Also, the TGI in [6] and in assay [7] was > 100 µM each time.

As for `CC(=O)OC1=C2CC[C@@H]3C(CC[C@@]4(C)C3CC[C@@H]4OC(C)=O)[C@@]2(C)CC(C#N)C1=O` (some centres undefined), the TGI was 54.9 µM in assay [1]; > 100 µM in [2]; > 100 µM in [3]; > 100 µM in [4]; > 100 µM in [5]; > 100 µM in assay [6]. Further, the TGI in [7] turned out to be 61.4 µM; in assay [8] it was 42.6 µM.

`CC(=O)NCc1c(C(N)=O)ncn1Cc1ccccc1`: the TGI in [1], in [2], in [3], in assay [4], in assay [6] and in assay [7] was > 100 µM in each case. For the same compound, in assay [8], the TGI is > 100 µM.

In the case of `CS(=O)(=O)NNS(=O)(=O)c1ccc(F)cc1`, the TGI in [2], in assay [3], in assay [9], in [4], in [5] and in assay [6] was > 100 µM each time. The TGI in assay [7] and in assay [8] was > 100 µM each time.

Take `O=[N+]([O-])c1cc(I)cc(/C=N/NS(=O)(=O)c2ccc(Cl)cc2)c1O`: the TGI came to 37.6 µM in assay [1]; 42.9 µM in assay [2]; 46.3 µM in [3]; 46.2 µM in assay [9]; 83 µM in [4]; 77.4 µM in assay [5]. Further, the TGI is 37.6 µM in assay [6], 45.1 µM in assay [7] and 55.8 µM in assay [8].

For `COc1cc(/C=C2\NC(=O)C3Cc4c(OC)c(C)c(OC)c(OC)c4C2N3C)c(OC)c(C)c1OC` (centres undefined), the TGI in [1], in [2], in [3], in [9], in assay [4] and in [5] was > 100 µM throughout. For the same compound, the TGI in [6], in assay [7] and in [8] was > 100 µM throughout.

Consider `O=c1c(C(c2ccc([N+](=O)[O-])cc2)c2c(O)c3ccccc3n(-c3ccccc3)c2=O)c(O)c2ccccc2n1-c1ccccc1`, for which the TGI was determined as 29.3 µM in assay [1]; 26.9 µM in assay [2]; 29.1 µM in [3]; 62.7 µM in assay [9]; 59.7 µM in [4]; 98.6 µM in assay [5]. Moreover, the values for the TGI in [6] and in assay [7] were 73.9 µM and > 100 µM, respectively.

Regarding `CCc1cccc(C(C)CC)c1NC(=O)C(=O)Cc1nc2ccccc2o1` (centres undefined), the TGI in assay [1], in [2], in assay [3], in [4], in [5] and in [6] was > 50 µM in each case. Also, the TGI in assay [7] and in assay [8] was > 50 µM in each case.

Regarding `O=C(CC1(O)C(=O)Nc2ccccc21)c1ccc(Cl)cc1Cl` (centres undefined), the TGI in [1], in assay [2], in assay [4], in assay [5], in assay [6] and in [7] was > 100 µM each time. Besides, in [8], the TGI is > 100 µM.

Take `CC1SC2=NC3=C(c4ccccc4C3=O)C(c3ccccc3Cl)N2C1=O` (centres undefined): the TGI in assay [1], in assay [2], in [3], in [4], in assay [5] and in [6] was > 100 µM throughout. The TGI in assay [7] and in assay [8] was > 100 µM throughout.

In the case of `CNS(=O)(=O)NNS(=O)(=O)c1ccc(F)cc1`, the TGI in [2], in [9], in assay [4], in [5], in [6] and in assay [7] was > 100 µM throughout. Moreover, the TGI in [8] was > 100 µM.

Regarding `C[C@]12CCc3nonc3C1CC[C@@H]1C2CC[C@@]2(C)C1CC[C@@H]2O` (some centres undefined), the TGI in [1], in [2], in assay [3], in assay [4], in assay [5] and in assay [6] was > 100 µM throughout. Further, the TGI in assay [7] and in [8] was > 100 µM each time.

For `CO/C=C(\Br)c1ccc2c(c1)OCO2`, the TGI in [1], in [2], in assay [9], in assay [4], in assay [5] and in assay [6] was > 100 µM throughout. In addition, the TGI in assay [7] and in assay [8] was > 100 µM in each case.

As for `COc1ccc(C[C@]23CCC(=O)N2CCc2cc(OC)c(O)cc23)cc1O`, the TGI in assay [1] was > 100 µM; in [2], > 100 µM; in assay [3] it was > 100 µM; in assay [4] it was > 100 µM; in assay [5], > 100 µM; in assay [6], 78.6 µM. For the same compound, the TGI in assay [7] and in assay [8] was > 100 µM in each case.

Regarding `N#CC(C(=O)CCC(=O)Nc1cccc(C(F)(F)F)c1)c1ccccc1` (centres undefined), the TGI in [1], in [2], in assay [3], in assay [4], in [5] and in [6] was > 100 µM each time. The TGI in [7] and in assay [8] was > 100 µM throughout.

On to `CCOC(=O)CNC(=O)OCc1ccccc1`, for which the TGI in assay [1], in assay [2], in assay [3], in assay [5], in [6] and in assay [7] was > 100 µM throughout. In assay [8], the TGI is > 100 µM.

As to `C1C[OH+]CCNCC[OH+]CC[OH+]CCN1.N.[Cl-].[Pt+4]`, the GI50 in assay [1] is 35.8 µM; in assay [2] it was > 100 µM; in assay [3] it was 54.1 µM; in [5], > 100 µM; in assay [6] it was 18.8 µM; in assay [7], 49.6 µM. Besides, the GI50 in assay [8] was > 100 µM. The TGI in [1], in assay [2], in assay [3], in assay [5], in assay [6] and in assay [7] was > 100 µM throughout. Also, the TGI in assay [8] was > 100 µM.

For the compound `COc1ccc([Se][Se]c2ccc(OC)cc2OC)c(OC)c1`, the TGI in assay [1] is 4.46 µM; in assay [2] it was 7.78 µM; in [3] it was > 100 µM; in assay [5], 4.97 µM; in assay [6], > 100 µM; in [7] it was 15.3 µM. In [8], the TGI stood at 5.89 µM.

For the compound `COC(=O)/C(=N\NC(N)=O)C(C#N)c1ccccc1` (centres undefined), the TGI in assay [2], in assay [3], in assay [4], in assay [5], in assay [6] and in assay [8] was > 100 µM each time.
